Results: PubChem BioAssay AID1259407 (Chemical Carcinogenesis Research Information System (CCRIS), 2018)
Active and inactive are the calls of the source. The rule behind the calls is not given here.

Tested on: CCRIS mutagenicity, Ames/micronucleus/aberration tests
Experiment: CCRIS mutagenicity studies
[1] = Test System: AMES SALMONELLA TYPHIMURIUM, Strain/Indicator: TA98, Metabolic Activation: NONE, Method: STANDARD PLATE
[2] = Test System: AMES SALMONELLA TYPHIMURIUM, Strain/Indicator: TA98, Metabolic Activation: RAT, LIVER, S-9, AROCLOR 1254, Method: STANDARD PLATE
[3] = Test System: AMES SALMONELLA TYPHIMURIUM, Strain/Indicator: TA100, Metabolic Activation: NONE, Method: STANDARD PLATE
[4] = Test System: AMES SALMONELLA TYPHIMURIUM, Strain/Indicator: TA100, Metabolic Activation: RAT, LIVER, S-9, AROCLOR 1254, Method: STANDARD PLATE
[5] = Test System: AMES SALMONELLA TYPHIMURIUM, Strain/Indicator: TA100, Metabolic Activation: NONE, Method: PREINCUBATION
[6] = Test System: AMES SALMONELLA TYPHIMURIUM, Strain/Indicator: TA98, Metabolic Activation: NONE, Method: PREINCUBATION
[7] = Test System: AMES SALMONELLA TYPHIMURIUM, Strain/Indicator: TA98, Metabolic Activation: RAT, LIVER, S-9, AROCLOR 1254, Method: PREINCUBATION
[8] = Test System: AMES SALMONELLA TYPHIMURIUM, Strain/Indicator: TA100, Metabolic Activation: RAT, LIVER, S-9, AROCLOR 1254, Method: PREINCUBATION
[9] = Test System: AMES SALMONELLA TYPHIMURIUM, Strain/Indicator: TA1535, Metabolic Activation: NONE, Method: PREINCUBATION
[10] = Test System: AMES SALMONELLA TYPHIMURIUM, Strain/Indicator: TA1538, Metabolic Activation: NONE, Method: PREINCUBATION

Measured: mutagenic call

O=c1[nH]cnc2c1ncn2[C@H]1CC[C@@H](CO)O1
active: Test System: HUMAN B LYMPHOBLASTOID CELLS, Strain/Indicator: TK6 CELL (HPRT)/6-THIOGUANINE, Metabolic Activation: NONE, Method: SUSPENSION/PLATE active; positive | Test System: HUMAN B LYMPHOBLASTOID CELLS, Strain/Indicator: TK6 CELL (TK+/-)/TRIFLUOROTHYMIDINE, Metabolic Activation: NONE, Method: SUSPENSION/PLATE active; positive
inactive: Test System: AMES SALMONELLA TYPHIMURIUM, Strain/Indicator: TA98, Metabolic Activation: HAMSTER, LIVER, S-9, AROCLOR 1254, Method: STANDARD PLATE inactive; negative | [1] inactive; negative | [2] inactive; negative | Test System: AMES SALMONELLA TYPHIMURIUM, Strain/Indicator: TA100, Metabolic Activation: HAMSTER, LIVER, S-9, AROCLOR 1254, Method: STANDARD PLATE inactive; negative | [3] inactive; negative | [4] inactive; negative | Test System: AMES SALMONELLA TYPHIMURIUM, Strain/Indicator: TA1535, Metabolic Activation: HAMSTER, LIVER, S-9, AROCLOR 1254, Method: STANDARD PLATE inactive; negative | Test System: AMES SALMONELLA TYPHIMURIUM, Strain/Indicator: TA1535, Metabolic Activation: NONE, Method: STANDARD PLATE inactive; negative | Test System: AMES SALMONELLA TYPHIMURIUM, Strain/Indicator: TA1535, Metabolic Activation: RAT, LIVER, S-9, AROCLOR 1254, Method: STANDARD PLATE inactive; negative | Test System: AMES SALMONELLA TYPHIMURIUM, Strain/Indicator: TA1537, Metabolic Activation: HAMSTER, LIVER, S-9, AROCLOR 1254, Method: STANDARD PLATE inactive; negative | Test System: AMES SALMONELLA TYPHIMURIUM, Strain/Indicator: TA1537, Metabolic Activation: NONE, Method: STANDARD PLATE inactive; negative | Test System: AMES SALMONELLA TYPHIMURIUM, Strain/Indicator: TA1537, Metabolic Activation: RAT, LIVER, S-9, AROCLOR 1254, Method: STANDARD PLATE inactive; negative | Test System: AMES SALMONELLA TYPHIMURIUM, Strain/Indicator: TA1538, Metabolic Activation: HAMSTER, LIVER, S-9, AROCLOR 1254, Method: STANDARD PLATE inactive; negative | Test System: AMES SALMONELLA TYPHIMURIUM, Strain/Indicator: TA1538, Metabolic Activation: NONE, Method: STANDARD PLATE inactive; negative | Test System: AMES SALMONELLA TYPHIMURIUM, Strain/Indicator: TA1538, Metabolic Activation: RAT, LIVER, S-9, AROCLOR 1254, Method: STANDARD PLATE inactive; negative

CC(O)CC(=O)Nc1ccc(O)cc1 (configuration not stated)
inactive: Test System: AMES SALMONELLA TYPHIMURIUM, Strain/Indicator: TA100, Metabolic Activation: HAMSTER, LIVER, S-9, KANECHLOR 400, Method: PREINCUBATION inactive; negative | [5] inactive; negative

Cc1c([N+](=O)[O-])c(C)c([N+](=O)[O-])c(C(C)(C)C)c1[N+](=O)[O-]
inactive: [6] inactive; negative | [1] inactive; negative | [7] inactive; negative | [2] inactive; negative | [5] inactive; negative | [3] inactive; negative | [8] inactive; negative | [4] inactive; negative | Test System: MOUSE LYMPHOMA, Strain/Indicator: L5178Y (TK+/TK-), Metabolic Activation: NONE, Method: SUSPENSION/PLATE inactive; negative | Test System: MOUSE LYMPHOMA, Strain/Indicator: L5178Y (TK+/TK-), Metabolic Activation: RAT, LIVER, S-9, AROCLOR 1242 AND 1254 (2:1), Method: SUSPENSION/PLATE inactive; negative | Test System: UDS RAT HEPATOCYTES, Strain/Indicator: THY INCORP, Metabolic Activation: NONE inactive; negative | Test System: UDS RAT HEPATOCYTES, Strain/Indicator: THY INCORP, Metabolic Activation: NONE, Method: IN VIVO-IN VITRO inactive; negative

CCOC(=O)N(C)C
inactive: Test System: AMES SALMONELLA TYPHIMURIUM, Strain/Indicator: TA98, Metabolic Activation: NONE inactive; negative | Test System: AMES SALMONELLA TYPHIMURIUM, Strain/Indicator: TA100, Metabolic Activation: NONE inactive; negative
active: Test System: AMES SALMONELLA TYPHIMURIUM, Strain/Indicator: TA1535, Metabolic Activation: NONE active; positive | Test System: AMES SALMONELLA TYPHIMURIUM, Strain/Indicator: TA1535, Metabolic Activation: S-9, AROCLOR 1254 active; positive

CNc1ccc2ncccc2c1N
inactive: [6] inactive; negative | [7] inactive; negative | [5] inactive; negative | [8] inactive; negative

O=C(O)CNC(=O)c1ccc([N+](=O)[O-])cc1
inactive: Test System: AMES SALMONELLA TYPHIMURIUM, Strain/Indicator: TA98, Metabolic Activation: HAMSTER, LIVER, S-9, AROCLOR 1254 (30%), Method: PREINCUBATION inactive; negative | Test System: AMES SALMONELLA TYPHIMURIUM, Strain/Indicator: TA98, Metabolic Activation: RAT, LIVER, S-9, AROCLOR 1254 (30%), Method: PREINCUBATION inactive; negative | Test System: AMES SALMONELLA TYPHIMURIUM, Strain/Indicator: TA100, Metabolic Activation: HAMSTER, LIVER, S-9, AROCLOR 1254 (5, 10 OR 30%), Method: PREINCUBATION inactive; negative | Test System: AMES SALMONELLA TYPHIMURIUM, Strain/Indicator: TA100, Metabolic Activation: RAT, LIVER, S-9, AROCLOR 1254 (5, 10 OR 30%), Method: PREINCUBATION inactive; negative | Test System: AMES SALMONELLA TYPHIMURIUM, Strain/Indicator: TA1535, Metabolic Activation: HAMSTER, LIVER, S-9, AROCLOR 1254 (5, 10 OR 30%), Method: PREINCUBATION inactive; negative | [9] inactive; negative | Test System: AMES SALMONELLA TYPHIMURIUM, Strain/Indicator: TA1535, Metabolic Activation: RAT, LIVER, S-9, AROCLOR 1254 (5, 10 OR 30%), Method: PREINCUBATION inactive; negative
active: [6] active; positive | [5] active; positive | [10] active; positive

CCCCCCCC(=O)CCc1ccc(O)c(OC)c1
inactive: [6] inactive; negative | Test System: AMES SALMONELLA TYPHIMURIUM, Strain/Indicator: TA98, Metabolic Activation: RAT LIVER S-9, SODIUM PHENOBARBITAL, Method: PREINCUBATION inactive; negative | [5] inactive; negative | Test System: AMES SALMONELLA TYPHIMURIUM, Strain/Indicator: TA100, Metabolic Activation: RAT LIVER S-9, SODIUM PHENOBARBITAL, Method: PREINCUBATION inactive; negative | [9] inactive; negative | Test System: AMES SALMONELLA TYPHIMURIUM, Strain/Indicator: TA1535, Metabolic Activation: RAT LIVER S-9, SODIUM PHENOBARBITAL, Method: PREINCUBATION inactive; negative | [10] inactive; negative | Test System: AMES SALMONELLA TYPHIMURIUM, Strain/Indicator: TA1538, Metabolic Activation: RAT LIVER S-9, SODIUM PHENOBARBITAL, Method: PREINCUBATION inactive; negative
